Experimental data as given in ChEMBL document CHEMBL5154777, “Alternative approaches utilizing click chemistry to develop next-generation analogs of solithromycin” (2022).
≈ marks a conversion by molar mass, not a printed value.

Key:
Format in all cases: functional
Staphylococcus aureus [1] = test: Antibacterial activity against methicillin-resistant Staphylococcus aureus ATCC 43300
Enterococcus faecium = test: Antibacterial activity against Enterococcus faecium NCTC 7171
Pseudomonas aeruginosa = test: Antibacterial activity against Pseudomonas aeruginosa HER 1018
Klebsiella pneumoniae = test: Antibacterial activity against Klebsiella pneumoniae BAA 2146
Acinetobacter baumannii = test: Antibacterial activity against Acinetobacter baumannii 2208 ATCC 19606
Escherichia coli [2] = test: Antibacterial activity against Escherichia coli MG1655
Enterobacter cloacae = test: Antibacterial activity against Enterobacter cloacae ATCC 13047
Staphylococcus aureus [3] = test: Antibacterial activity against Staphylococcus aureus ATCC 29213
Staphylococcus aureus [4] = test: Antibacterial activity against Staphylococcus aureus UCN14
Staphylococcus aureus [5] = test: Antibacterial activity against Staphylococcus aureus UCN17
Staphylococcus aureus [6] = test: Antibacterial activity against Staphylococcus aureus UCN18
Escherichia coli [7] = test: Antibacterial activity against Escherichia coli DK
Escherichia coli [8] = test: Antibacterial activity against Escherichia coli DK3535
Escherichia coli [9] = test: Antibacterial activity against Escherichia coli DK2058G
Escherichia coli [10] = test: Antibacterial activity against Escherichia coli SQ171
Escherichia coli [11] = test: Antibacterial activity against Escherichia coli SQ171 2058G
Staphylococcus aureus [12] = test: Antibacterial activity against Staphylococcus aureus ATCC 33591
Streptococcus pneumoniae [13] = test: Antibacterial activity against Streptococcus pneumoniae 655 mef A
Streptococcus pneumoniae [14] = test: Antibacterial activity against Streptococcus pneumoniae 2196 erm B
Streptococcus pneumoniae [15] = test: Antibacterial activity against Streptococcus pneumoniae 2634 mef A 2059G

Row | SMILES | MIC (Staphylococcus aureus [1]) [µM] | MIC (Enterococcus faecium) [µM] | MIC (Pseudomonas aeruginosa) [µM] | MIC (Klebsiella pneumoniae) [µM] | MIC (Acinetobacter baumannii) [µM] | MIC (Escherichia coli [2]) [µM] | MIC (Enterobacter cloacae) [µM] | MIC (Staphylococcus aureus [3]) [µM] | MIC (Staphylococcus aureus [4]) [µM] | MIC (Staphylococcus aureus [5]) [µM] | MIC (Staphylococcus aureus [6]) [µM] | MIC (Escherichia coli [7]) [µM] | MIC (Escherichia coli [8]) [µM] | MIC (Escherichia coli [9]) [µM] | MIC (Escherichia coli [10]) [µM] | MIC (Escherichia coli [11]) [µM] | MIC (Staphylococcus aureus [12]) [µM] | MIC (Streptococcus pneumoniae [13]) [µM] | MIC (Streptococcus pneumoniae [14]) [µM] | MIC (Streptococcus pneumoniae [15]) [µM]
1 | [N-]=[N+]=NC[C@@H]1CN(c2ccc(N3CCOCC3)c(F)c2)C(=O)O1 | > 200 | > 200 | > 200 | > 200 | > 200 | > 200 | > 200 |  |  |  |  |  |  |  |  |  |  |  |  | 
2 | [N-]=[N+]=NC[C@H]1CN(c2ccc(N3CCOCC3)c(F)c2)C(=O)O1 | > 200 | > 200 | > 200 | > 200 | > 200 | > 200 | > 200 |  |  |  |  |  |  |  |  |  |  |  |  | 
3 | CC[C@H]1OC(=O)[C@@](C)(F)C(=O)[C@H](C)[C@@H](O[C@@H]2O[C@H](C)C[C@H](N(C)CCc3cn(C[C@@H]4CN(c5ccc(N6CCOCC6)c(F)c5)C(=O)O4)nn3)[C@H]2O)[C@](C)(OC)C[C@@H](C)C(=O)[C@H](C)C2N(CCCCn3cc(-c4cccc(N)c4)nn3)C(=O)O[C@@]21C (single isomer, unassigned) | 200 (≈ 241 µg/mL) | > 200 | > 200 | > 200 | > 200 | > 200 | > 200 |  |  |  |  |  |  |  |  |  |  |  |  | 
4 | CC[C@H]1OC(=O)[C@@](C)(F)C(=O)[C@H](C)[C@@H](O[C@@H]2O[C@H](C)C[C@H](N(C)C)[C@H]2O)[C@](C)(OC)C[C@@H](C)C(=O)[C@H](C)C2N(C/C=C/Cn3cc(-c4cccs4)nn3)C(=O)O[C@@]21C (single isomer, unassigned) |  |  |  |  |  |  |  | < 0.075 | 19 (≈ 15.8 µg/mL) | 9.6 (≈ 8.01 µg/mL) | 9.6 (≈ 8.01 µg/mL) | 2.4 (≈ 2 µg/mL) | 2.4 (≈ 2 µg/mL) | 2.4 (≈ 2 µg/mL) | > 38 | > 38 |  |  |  | 
5 | CC[C@H]1OC(=O)[C@@](C)(F)C(=O)[C@H](C)[C@@H](OC[C@@H](O)CN2CCOCC2)[C@](C)(OC)C[C@@H](C)C(=O)[C@H](C)C2N(CCCCn3cc(-c4cccc(N)c4)nn3)C(=O)O[C@@]21C (single isomer, unassigned) |  |  |  |  |  |  |  |  | > 150 | > 150 | > 150 |  | 4.8 (≈ 3.99 µg/mL) | 4.8 (≈ 3.99 µg/mL) |  |  | > 150 | > 4.8 | > 4.8 | > 4.8
6 | CC[C@H]1OC(=O)[C@@](C)(F)C(=O)[C@H](C)[C@@H](O[C@@H]2O[C@H](C)C[C@H](N(C)CCCn3cc(-c4cccnc4)nn3)[C@H]2O)[C@](C)(OC)C[C@@H](C)C(=O)[C@H](C)C2N(CCCCn3cc(-c4cccc(N)c4)nn3)C(=O)O[C@@]21C (single isomer, unassigned) |  |  |  |  |  |  |  | 3.9 (≈ 3.97 µg/mL) | > 130 | > 130 | > 130 | 3.9 (≈ 3.97 µg/mL) | 7.9 (≈ 8.04 µg/mL) | 7.9 (≈ 8.04 µg/mL) | > 31 | > 31 |  |  |  | 
7 | CC[C@H]1OC(=O)[C@@](C)(F)C(=O)[C@H](C)[C@@H](OC[C@@H](O)CN(C)C)[C@](C)(OC)C[C@@H](C)C(=O)[C@H](C)C2N(CCCCn3cc(-c4cccc(N)c4)nn3)C(=O)O[C@@]21C (single isomer, unassigned) |  |  |  |  |  |  |  |  | > 160 | > 160 | > 160 |  | > 41 | > 41 |  |  | > 160 | 2.5 (≈ 1.97 µg/mL) | > 5.1 | > 5.1
8 | CC[C@H]1OC(=O)[C@@](C)(F)C(=O)[C@H](C)[C@@H](OC[C@@H](O)CN2CCCCC2)[C@](C)(OC)C[C@@H](C)C(=O)[C@H](C)C2N(CCCCn3cc(-c4cccc(N)c4)nn3)C(=O)O[C@@]21C (single isomer, unassigned) |  |  |  |  |  |  |  |  | > 150 | > 150 | > 150 |  | 9.6 (≈ 7.96 µg/mL) | 4.8 (≈ 3.98 µg/mL) |  |  | > 150 | > 4.8 | > 4.8 | > 4.8
9 | CC[C@H]1OC(=O)[C@@](C)(F)C(=O)[C@H](C)[C@@H](O[C@@H]2O[C@H](C)C[C@H](N(C)CCCCn3cc(-c4cccnc4)nn3)[C@H]2O)[C@](C)(OC)C[C@@H](C)C(=O)[C@H](C)C2N(CCCCn3cc(-c4cccc(N)c4)nn3)C(=O)O[C@@]21C (single isomer, unassigned) |  |  |  |  |  |  |  | 1.9 (≈ 1.96 µg/mL) | > 120 | > 120 | > 120 | 7.8 (≈ 8.04 µg/mL) | 7.8 (≈ 8.04 µg/mL) | 7.8 (≈ 8.04 µg/mL) | > 31 | > 31 |  |  |  | 
10 | CC[C@H]1OC(=O)[C@@](C)(F)C(=O)[C@H](C)[C@@H](O[C@@H]2O[C@H](C)C[C@H](N(C)CCCCn3cc(-c4cccc(N)c4)nn3)[C@H]2O)[C@](C)(OC)C[C@@H](C)C(=O)[C@H](C)C2N(CCCCn3cc(-c4cccc(N)c4)nn3)C(=O)O[C@@]21C (single isomer, unassigned) |  |  |  |  |  |  |  | 0.96 (≈ 1 µg/mL) | > 120 | > 120 | > 120 | 7.7 (≈ 8.05 µg/mL) | 3.8 (≈ 3.97 µg/mL) | > 31 | > 31 | > 31 |  |  |  | 
11 | CC[C@H]1OC(=O)[C@@](C)(F)C(=O)[C@H](C)[C@@H](O[C@@H]2O[C@H](C)C[C@H](N(C)CCn3cc(-c4cccc(N)c4)nn3)[C@H]2O)[C@](C)(OC)C[C@@H](C)C(=O)[C@H](C)C2N(CCCCn3cc(-c4cccc(N)c4)nn3)C(=O)O[C@@]21C (single isomer, unassigned) |  |  |  |  |  |  |  | 0.49 (≈ 0.498 µg/mL) | > 130 | > 130 | > 130 | > 31 | > 31 | > 31 | > 31 | > 31 |  |  |  | 
12 | CC[C@H]1OC(=O)[C@@](C)(F)C(=O)[C@H](C)[C@@H](O[C@@H]2O[C@H](C)C[C@H](N(C)C)[C@H]2O)[C@](C)(OC)C[C@@H](C)C(=O)[C@H](C)C2N(C/C=C/Cn3cc(-c4cccc(O)c4)nn3)C(=O)O[C@@]21C (single isomer, unassigned) |  |  |  |  |  |  |  | < 0.074 | 9.5 (≈ 8.02 µg/mL) | 9.5 (≈ 8.02 µg/mL) | 4.7 (≈ 3.97 µg/mL) | 2.4 (≈ 2.03 µg/mL) | 2.4 (≈ 2.03 µg/mL) | 2.4 (≈ 2.03 µg/mL) | > 38 | > 38 |  |  |  | 
13 | CC[C@H]1OC(=O)[C@@](C)(F)C(=O)[C@H](C)[C@@H](O[C@@H]2O[C@H](C)C[C@H](N(C)CCc3cn(C[C@H]4CN(c5ccc(N6CCOCC6)c(F)c5)C(=O)O4)nn3)[C@H]2O)[C@](C)(OC)C[C@@H](C)C(=O)[C@H](C)C2N(CCCCn3cc(-c4cccc(N)c4)nn3)C(=O)O[C@@]21C (single isomer, unassigned) | 0.8 (≈ 0.964 µg/mL) | 0.2 (≈ 0.241 µg/mL) | > 200 | > 200 | > 200 | > 200 | > 200 |  |  |  |  |  |  |  |  |  |  |  |  | 
14 | CC[C@H]1OC(=O)[C@@](C)(F)C(=O)[C@H](C)[C@@H](O[C@@H]2O[C@H](C)C[C@H](N(C)CCn3cc(-c4cccnc4)nn3)[C@H]2O)[C@](C)(OC)C[C@@H](C)C(=O)[C@H](C)C2N(CCCCn3cc(-c4cccc(N)c4)nn3)C(=O)O[C@@]21C (single isomer, unassigned) |  |  |  |  |  |  |  | 0.25 (≈ 0.251 µg/mL) | > 130 | > 130 | > 130 | > 32 | > 32 | > 32 | > 32 | > 32 |  |  |  | 
15 | CC[C@H]1OC(=O)[C@@](C)(F)C(=O)[C@H](C)[C@@H](O[C@@H]2O[C@H](C)C[C@H](N(C)C)[C@H]2O)[C@](C)(OC)C[C@@H](C)C(=O)[C@H](C)C2N(C/C=C/Cn3cc(-c4cccc(N)c4)nn3)C(=O)O[C@@]21C (single isomer, unassigned) |  |  |  |  |  |  |  | < 0.074 | 2.4 (≈ 2.02 µg/mL) | 0.15 (≈ 0.126 µg/mL) | < 0.074 | 2.4 (≈ 2.02 µg/mL) | 2 (≈ 1.69 µg/mL) | 2.4 (≈ 2.02 µg/mL) | > 38 | > 38 |  |  |  | 
16 | C=CCN(C)[C@H]1C[C@@H](C)O[C@@H](O[C@@H]2[C@@H](C)C(=O)[C@](C)(F)C(=O)O[C@H](CC)[C@@]3(C)OC(=O)N(CCCCN=[N+]=[N-])C3[C@@H](C)C(=O)[C@H](C)C[C@@]2(C)OC)[C@@H]1O (single isomer, unassigned) |  |  |  |  |  |  |  | 0.66 (≈ 0.498 µg/mL) | > 170 | > 170 | > 170 | 0.66 (≈ 0.498 µg/mL) | 11 (≈ 8.29 µg/mL) | 5.3 (≈ 4 µg/mL) | > 42 | > 42 |  |  |  | 
17 | CC[C@H]1OC(=O)[C@@](C)(F)C(=O)[C@H](C)[C@@H](O[C@@H]2O[C@H](C)C[C@H](N(C)CCCn3cc(-c4cccc(N)c4)nn3)[C@H]2O)[C@](C)(OC)C[C@@H](C)C(=O)[C@H](C)C2N(CCCCn3cc(-c4cccc(N)c4)nn3)C(=O)O[C@@]21C (single isomer, unassigned) |  |  |  |  |  |  |  | 0.97 (≈ 1 µg/mL) | > 120 | > 120 | > 120 | 3.9 (≈ 4.02 µg/mL) | 3.9 (≈ 4.02 µg/mL) | 16 (≈ 16.5 µg/mL) | > 31 | > 31 |  |  |  | 
18 | C=CCN(C)[C@H]1C[C@@H](C)O[C@@H](O[C@@H]2[C@@H](C)C(=O)[C@](C)(F)C(=O)O[C@H](CC)[C@@]3(C)OC(=O)N(CCCCn4cc(-c5cccc(N)c5)nn4)C3[C@@H](C)C(=O)[C@H](C)C[C@@]2(C)OC)[C@@H]1O (single isomer, unassigned) |  |  |  |  |  |  |  | 1.1 (≈ 0.958 µg/mL) | > 150 | 150 (≈ 131 µg/mL) | 150 (≈ 131 µg/mL) | 2.3 (≈ 2 µg/mL) | 4.6 (≈ 4.01 µg/mL) | 2.3 (≈ 2 µg/mL) | > 37 | > 37 |  |  |  | 
19 | CC(=O)NC[C@H]1CN(c2ccc(N3CCOCC3)c(F)c2)C(=O)O1 [LINEZOLID] | 6 (≈ 2.02 µg/mL) | 6 (≈ 2.02 µg/mL) | > 200 | > 200 | > 200 | > 200 | > 200 |  |  |  |  |  |  |  |  |  |  |  |  | 
